From US4072755A, “Novel cyclopentanoic acid derivatives” (Roussel UCLAF, priority 1975, dated 1978)

Experiments:
guinea pig ileon = assay: Relaxant activity on the guinea pig ileon (isolated organ bath); settings: isolated terminal guinea pig ileon, oxygenated Tyrode liquid, 37° C; for minimal effective concentration: Cavia porcellus, read-out: Relaxant Activity (concentration which caused a suppression of spontaneous contractions and relaxed the organ)
Method: The relaxant effect of the test compounds was determined on guinea pig ileon using the following procedure. The terminal portion of the guinea pig ileon was removed and washed with Tyrode solution at 37° C. It was then suspended in a bath of oxygenated Tyrode liquid at 37° C and the contractions were registered on a collector attached to a Sanborn polygraph. The test product was added to bath of the organ with a low volume and the concentration which caused a suppression of spontaneous contractions and relaxed the organ causing a lowering of the line of the base was considered to be relaxant.

mice = assay: Analgesic activity - stretching provoked by acetic acid (Koster et al); assay type: in vivo; settings: Mus musculus, 0.25 h, oral, one half hour before intraperitoneal 1% acetic acid 100 mg/kg, 15 minute observation, fasted, read-out: DA50 (dose which reduced the number of stretchings by 50%)
Method: The test procedure was that of Koster et al wherein an intraperitoneal injection of aqueous acetic acid in a concentration of 1% at a dose of 100 mg/kg caused in mice repeated movements of stretching and twisting which can persist for more than 6 hours. Analgesics prevent or lessen the syndrome. The test products were orally administered one half hour before the acetic acid injection and the mice were fasted from the day before the test. The stretching were counted for each mouse during a 15 minute observation period beginning right after the acetic acid injection and the analgesic effect was expressed as a percentage of protection with respect to the controls.

[1] = system: prostaglandin synthetases of lungs of guinea pigs; assay: Inhibitory effect against biosynthesis of prostaglandins starting with arachidonic acid by prostaglandin synthetases of lungs of guinea pigs (Vane); assay type: biochemical; settings: guinea pig lung homogenate supernatant, 10 μg arachidonic acid, 30 minutes at 37° C; prostaglandin-like activity read on isolated rat colon; read-out: CI50 (inhibited by 50% the biosynthesis activity)
Excerpt: C. INHIBITORY EFFECT AGAINST BIOSYNTHESIS OF PROSTAGLANDINS SYNTHESIS OF PROSTAGLANDINS STARTING WITH ARACHIDONIC ACID BY MEANS OF PROSTAGLANDIN SYNTHETASES OF LUNGS OF GUINEA PIGS.
This test used the procedure of Vane [Nature New Biology, Vol. 231 (1971), p. 232-235] wherein the lungs of adult guinea pigs (2 per series) were rapidly removed and washed with a modified, iced Bucher medium. The lung tissue was homogenized in a Turrax grinder in a minute and the homogenate was centrifuged for 20 minutes to 1200 g. The supernatant was used as a preparation of prostaglandin synthetases.
A solution of arachidonic acid in ethanol at a concentration of 10 mg/ml was diluted with a 0.2% aqueous sodium carbonate solution and was then diluted further with a modified Bucher medium to obtain a final acid concentration of 200 μg/ml. The biosynthesis inhibitors are put into aqueous or dilute alcohol (20% maximum) solutions. Tubes were prepared containing 1 ml of the prostaglandin synthetases preparation, 10 μg of arachidonic acid and 0.1 ml of inhibiting solution or, for the controls, an equal volume of water or dilute alcohol. The tubes were incubated with stirring for 30 minutes at 37° C in aerobic conditions and each test consisted of a tube containing a biosynthesis inhibitor, one biosynthesis control with incubated arachidonic acid and one control with non-incubated arachidonic acid. The latter control permitted a evaluation of amount of natural prostaglandins present in the ground lung and the results obtained with this control must therefore be taken away from the control of biosynthesis and from all the tests. The reactions were stopped by immension in boiling water until the proteins are coagulated. The dosage of "prostaglandin like" activity was effected biologically on the isolated rat colon suspended in Krebs liquid, mixed to augment the specificity, with antagonists to other contracturant mediators susceptible to interfere. The antagonists were mepyramine, scopolamine, methysergide, phenoxybenzamine and propanolol.
A comparison of the results registered in the presence or absence of a test product permitted the calculation of the percentage of biosynthesis inhibition. The CI50 dose which inhibited by 50% the biosynthesis activity was graphically obtained by straight line representing the percent of inhibition with reference to the incubated controls against the log of the concentration in μg/ml and the results are reported in Table II.

CCCCC[C@H](O)/C=C/[C@H]1CC[C@H](O)[C@H]1CO (racemic) [Product A, (1RS, 2SR, 5RS, 3'SR) (1'E) 2,3'-dihydroxy-5-(1'-octenyl)-cyclopentane methonol]
Relaxant Activity (concentration which caused a suppression of spontaneous contractions and relaxed the organ) (guinea pig ileon): 20 µg/mL

CCCCC[C@@H](/C=C/[C@H]1CC[C@H](O)[C@@H]1C(=O)OCC)OC(=O)c1ccccc1C(=O)O (relative stereo) [Product B, ethyl (1RS, 2SR, 5RS, 3'SR) (1'E) 2-hydroxy-5-(3'-α-hemiphthaloyloxy-1'-octenyl)-cyclopentanecarboxylate]
ED50 (mice): ~100 mg/kg

CCCCCCCCCC(=O)O[C@H](/C=C/[C@H]1CC[C@H](O)[C@@H]1C(=O)OCC)CCCCC (relative stereo) [Product C, ethyl (1RS, 2SR, 5RS, 3'SR) (1'E) 2-hydroxy-5-(3'-decanoyloxy-1'-octenyl)-cyclopentanecarboxylate]
minimal effective concentration (guinea pig ileon): 20 µg/mL | IC50 [1]: 137 µM

CCCCC[C@@H](/C=C/[C@H]1CC[C@H](O)[C@@H]1C(=O)OCC)OC (relative stereo) [Product D, ethyl (1RS, 2SR, 5RS, 3'SR) (1'E) 2-hydroxy-5-(3'methoxy-1'-octenyl)-cyclopentanecarboxylate]
minimal effective concentration (guinea pig ileon): 5 µg/mL | IC50 [1]: 436 µM

CCCCC[C@@H](/C=C/[C@H]1CC[C@@H](O)[C@@H]1C(=O)OCC)OC (relative stereo) [Product E, ethyl (1RS, 2RS, 5RS, 3'SR) (1'E) 2-hydroxy-5(3'-methoxy-1'-octenyl)-cyclopentanecarboxylate]
minimal effective concentration (guinea pig ileon): 10 µg/mL | IC50 [1]: 671 µM

CCCCC[C@@H](/C=C/[C@H]1CC[C@H](O)[C@@H]1C(=O)OCC)OC(=O)CCC(=O)O (relative stereo) [Product F, ethyl (1RS, 2SR, 5RS, 3'SR) (1'E) 2-hydroxy-5-(3'-hemisuccinyloxy-1'-octenyl)-cyclopentanecarboxylate]
IC50 [1]: 123 µM

CCCCCCCCCC(=O)O[C@H](/C=C/[C@H]1CC[C@@H](O)[C@@H]1C(=O)OCC)CCCCC (relative stereo) [Product G, ethyl (1RS, 2RS, 5RS, 3'SR) (1'E) 2-hydroxy-5-(3'-decanoyloxy-1'-octenyl)-cyclopentanecarboxylate]
IC50 [1]: 113 µM
